Assay: Inhibitory effect against murine renal cell carcinoma cell line (RENCA cells) using a BrdU-incorporation assay
Format: functional, cell-based
Conditions: Mus musculus

IC50: < 10 nM
SMILES: COc1cccc2c1C(=O)c1c(O)c3c(c(O)c1C2=O)C[C@@](O)(C(=O)CO)C[C@@H]3O[C@H]1C[C@H](N)[C@H](O)[C@H](C)O1 [DOXORUBICIN]
